“Also recorded” adds a separate entry of the source.
What was measured:
[1] = test system: λ-carrageenan-induced paw oedema; test: λ-carrageenan-induced paw oedema; assay type: in vivo, Wistar rat; conditions: 10 mg/kg p.o., 1% λ-carrageenan intraplantar
Procedure: Methods were based on literature (Kelso E B et al., J Pharmacol Exp Ther 2006, 316(3):1017-24; Kawabata A et al., Peptides 2001, 23(6):1181-3). Male Wistar rats (n=4 per group) were given 10 mg/kg PAR2 antagonist 52 (p.o. via gavage in olive oil, 500 μL). Control animals received only olive oil. Thirty minutes later, λ-carrageenan was administered into the right hind paw pad (1% w/v in saline, 100 μL, i.pl, Left paw saline control). Paw thickness and width were measured at 1-6, 8 and 24 h (as above) and swelling expressed in area (mm^2) and plotted as % change from baseline of each individual paw.

[2] = test system: β-tryptase-induced paw oedema; test: β-tryptase-induced paw oedema; assay type: in vivo, Wistar rat
Procedure: Based on previous methods (Kelso E B et al., J Pharmacol Exp Ther 2006, 316(3):1017-24; Suen J Y et al., Br J Pharmacol 2011, doi: 10.1111/j.1476-5381.2011.01610.x.), PAR2 antagonist 52 (10 mg/kg s.c.; n=4), ENMD-1068 (100 mg/kg s.c.; n=4) or vehicle control (DMSO s.c.; n=2) were administered to male Wistar rats. Baseline paw thickness and width were measured using digital calipers (World Precision Instruments, USA) expressed in area (mm^2; thickness×width). Fifteen minutes later, 2Furoyl-LIGLRO-NH2 (350 μg/paw in 100 μL saline) was injected into of the right hind paw pad (intraplantar, i.pl.). The left hind paw acted as a control, receiving saline only. In a separate experiment, vehicle (500 μL olive oil) versus PAR2 antagonist 52 (10 mg/kg p.o. in 500 μL olive oil) only were administered orally to two groups of rats (4 per group). Two hours later, β-tryptase (human recombinant lung, 20 μg in 100 μL saline) was injected into the right hind paw pad (vehicle in left for control) of all animals in each group. In all experiments, paw swelling was measured and expressed in area (mm^2; thickness×width) and plotted as % change from baseline of each individual paw.

CC[C@H](C)[C@@H](NC(=O)[C@H](CC1CCCCC1)NC(=O)c1ccno1)C(=O)N1CCC2(C=Cc3ccccc32)CC1 [Compound 52]
λ-carrageenan-induced oedema reduced to [1]: 50%
paw oedema induced by β-tryptase ([2]; 10 mg/kg p.o. in olive oil, β-tryptase 20 μg/paw 2 h later): reduced paw oedema; also recorded: prevented the oedema; also recorded: strongly inhibited
β-tryptase-induced mast cell degranulation in the extrasynovium ([2]; 10 mg/kg pretreatment): ameliorated; also recorded: prevented

Reference: patent publication US9868763B2, “Modulators of protease activated receptors” (The University of Queensland, priority 2011, dated 2018)
